19 molecules from patent publication US9023849B2, “Substituted fused imidazoles and pyrazoles and use thereof” (Bayer Intellectual Property GmbH, priority 2012, dated 2015) can be followed below.

The target in assay [1] is human PDE 5 (Homo sapiens (Human), UniProt O76074). The assay can be described thus: Inhibition of human phosphodiesterase 5 (PDE 5), SPA assay. In kind it is biochemical. As to conditions: PDE 5 preparation from human platelets, [8-3H]cGMP substrate. The method, then: B-6. Inhibition of Human Phosphodiesterase 5 (PDE 5)
PDE 5 preparations are obtained from human platelets by disruption (Microfluidizer®, 800 bar, 3 passes), followed by centrifugation (75 000 g, 60 min, 4° C.) and ion exchange chromatography of the supernatant on a Mono Q 10/10 column (linear sodium chloride gradient, elution with a 0.2-0.3M solution of sodium chloride in buffer (20 mM Hepes pH 7.2, 2 mM magnesium chloride). Fractions having PDE 5 activity are combined (PDE 5 preparation) and stored at −80° C.
To determine their in vitro action on human PDE 5, the test substances are dissolved in 100% DMSO and serially diluted. Typically, dilution series (1:3) from 200 μM to 0.091 μM are prepared (resulting final concentrations in the test: 4 μM to 0.0018 μM). In each case 2 μl of the diluted substance solutions are placed into the wells of microtitre plates (Isoplate-96/200 W; Perkin Elmer). Subsequently, 50 μl of a dilution of the above-described PDE 5 preparation are added. The dilution of the PDE 5 preparation is selected such that, during the later incubation, less than 70% of the substrate is converted (typical dilution: 1:100; dilution buffer: 50 mM tris/hydrochloric acid pH 7.5, 8.3 mM magnesium chloride, 1.7 mM EDTA, 0.2% BSA). The substrate, [8-^3H]cyclic guanosine-3′,5′-monophosphate (1 μCi/μl; Perkin Elmer) is diluted 1:2000 with assay buffer (50 mM tris/hydrochloric acid pH 7.5, 8.3 mM magnesium chloride, 1.7 mM EDTA) to a concentration of 0.0005 μCi/μl. By addition of 50 μl (0.025 μCi) of the diluted substrate, the enzyme reaction is finally started. The test mixtures are incubated at room temperature for 60 min and the reaction is stopped by adding 25 μl of a suspension of 18 mg/ml yttrium scintillation proximity beads in water (phosphodiesterase beads for SPA assays, RPNQ 0150, Perkin Elmer). The microtitre plates are sealed with a film and left to stand at room temperature for 60 min Subsequently, the plates are analysed for 30 s per well in a Microbeta scintillation counter (Perkin Elmer). IC50 values are determined using the graphic plot of the substance concentration against percentage PDE 5 inhibition.

Assay [2] relates to rabbit aorta rings. The assay can be described thus: Vasorelaxant effect in vitro (rabbit aorta rings precontracted with phenylephrine). As to conditions: Oryctolagus cuniculus, phenylephrine contraction, read-out: IC50 (concentration needed to reduce the magnitude of the phenylephrine contraction by 50%). The method, then: B-1. Vasorelaxant Effect In Vitro
Rabbits are stunned by a blow to the neck and exsanguinated. The aorta is removed, freed from adhering tissue and divided into rings of width 1.5 mm, which are placed individually under prestress into 5 ml organ baths with carbogen-sparged Krebs-Henseleit solution at 37° C. having the following composition (each mM): sodium chloride: 119; potassium chloride: 4.8; calcium chloride dihydrate: 1; magnesium sulphate heptahydrate: 1.4; potassium dihydrogenphosphate: 1.2; sodium hydrogencarbonate: 25; glucose: 10. The contractile force is determined with Statham UC2 cells, amplified and digitalized using A/D transducers (DAS-1802 HC, Keithley Instruments Munich), and recorded in parallel on linear recorders.
To obtain a contraction, phenylephrine is added to the bath cumulatively in increasing concentration. After several control cycles, the substance to be studied is added in increasing dosage each time in every further run, and the magnitude of the contraction is compared with the magnitude of the contraction attained in the last preceding run. This is used to calculate the concentration needed to reduce the magnitude of the control value by 50% (IC50 value). The standard administration volume is 5 μl; the DMSO content in the bath solution corresponds to 0.1%.

Assay [3] relates to recombinant guanylate cyclase reporter cell line. The assay can be described thus: Effect on a recombinant guanylate cyclase reporter cell line. In kind it is cell-based. The settings on record: read-out: MEC (minimal effective concentration). The method, then: B-2. Effect on a Recombinant Guanylate Cyclase Reporter Cell Line
The cellular action of the inventive compounds is determined on a recombinant guanylate cyclase reporter cell line as described in F. Wunder et al., Anal. Biochem. 339, 104-112 (2005).

`CC1(C)C(=O)Nc2nc(-n3nc(Cc4ccccc4F)c4cc(F)ccc43)ncc21` [Example 8, 2-[5-Fluoro-3-(2-fluorobenzyl)-1H-indazol-1-yl]-5,5-dimethyl-5,7-dihydro-6H-pyrrolo[2,3-d]pyrimidin-6-one]: the IC50 turned out to be 400 nM in assay [1] and 95 nM in assay [2]. Also, the minimal effective concentration in assay [3] was found to be 0.3 µM.

For the molecule `CCCc1nc(-n2nc(Cc3ccccc3F)c3ccccc32)nc2c1C(C)(C)C(=O)N2` [Example 28, 2-[3-(2-Fluorobenzyl)-1H-indazol-1-yl]-5,5-dimethyl-4-propyl-5,7-dihydro-6H-pyrrolo[2,3-d]-pyrimidin-6-one], the IC50 worked out at 450 nM in assay [1] and 10000 nM in assay [2]. In addition, the minimal effective concentration in assay [3] was 1 µM.

In the case of `CC1(C)C(=O)Nc2nc(-c3nn(Cc4ccccc4F)c4c3CCC4)nnc21` [Example 12, 3-[1-(2-Fluorobenzyl)-1,4,5,6-tetrahydrocyclopenta[c]pyrazol-3-yl]-7,7-dimethyl-5,7-dihydro-6H-pyrrolo[2,3-e][1,2,4]triazin-6-one], the IC50 in assay [1] came to 3500 nM. For the same molecule, in assay [3], the minimal effective concentration is 1 µM.

Take `CC1(C)C(=O)Nc2nc(-c3nn(Cc4ccccc4F)c4ncncc34)nnc21` [Example 19, 3-[1-(2-Fluorobenzyl)-1H-pyrazolo[3,4-d]pyrimidin-3-yl]-7,7-dimethyl-5,7-dihydro-6H-pyrrolo[2,3-e][1,2,4]triazin-6-one]: the values for the IC50 in assay [1] and in assay [2] were 370 nM and 124 nM, respectively. For the same molecule, in assay [3], the minimal effective concentration came out at 0.1 µM.

As for `Cc1ncc2c(-c3ncc4c(n3)NC(=O)C4(C)C)nn(Cc3ccccc3F)c2n1` [Example 15, 2-[1-(2-Fluorobenzyl)-6-methyl-1H-pyrazolo[3,4-d]pyrimidin-3-yl]-5,5-dimethyl-5,7-dihydro-6H-pyrrolo[2,3-d]pyrimidin-6-one], the figures for the IC50 in assay [1] and in assay [2] were 310 nM and 78 nM, respectively. Moreover, in assay [3], the minimal effective concentration was 0.1 µM.

With `CC1(C)C(=O)Nc2nc(-n3nc(Cc4ccccc4F)c4ccccc43)ncc21` [Example 5, 2-[3-(2-Fluorobenzyl)-1H-indazol-1-yl]-5,5-dimethyl-5,7-dihydro-6H-pyrrolo[2,3-d]pyrimidin-6-one], the IC50 in assay [1] was found to be 440 nM; in assay [2], 22 nM. The minimal effective concentration in assay [3] is 0.03 µM.

Regarding `Cc1nc(-n2nc(Cc3ccccc3F)c3cc(F)ccc32)nc2c1C(C)(C)C(=O)N2` [Example 27, 2-[5-Fluoro-3-(2-fluorobenzyl)-1H-indazol-1-yl]-4,5,5-trimethyl-5,7-dihydro-6H-pyrrolo[2,3-d]pyrimidin-6-one], the IC50 in assay [1] was 340 nM; in assay [2], 1670 nM. Moreover, the minimal effective concentration in assay [3] worked out at 0.3 µM.

In assay [1], `CC1(C)C(=O)Nc2nc(-c3nn(Cc4ccccc4F)c4c3CCC4)nc(I)c21` [Example 10, 2-[1-(2-Fluorobenzyl)-1,4,5,6-tetrahydrocyclopenta[c]pyrazol-3-yl]-4-iodo-5,5-dimethyl-5,7-dihydro-6H-pyrrolo[2,3-d]pyrimidin-6-one] displayed an IC50 of 480 nM. In addition, the minimal effective concentration in assay [3] was determined as 1 µM.

Take `CC1(C)C(=O)Nc2nc(-n3nc(CCC(F)(F)C(F)(F)F)c4cc(F)ccc43)nnc21` [Example 22, 3-[5-Fluoro-3-(3,3,4,4,4-pentafluorobutyl)-1H-indazol-1-yl]-7,7-dimethyl-5,7-dihydro-6H-pyrrolo[2,3-e][1,2,4]triazin-6-one]: the IC50 came to 530 nM in assay [1] and 7730 nM in assay [2]. Also, the minimal effective concentration in assay [3] is 1 µM.

On to `CC1(C)C(=O)Nc2nc(-c3nn(CCC(F)(F)C(F)(F)F)c4cc(Cl)ccc34)nnc21` [Example 26, 3-[6-Chloro-1-(3,3,4,4,4-pentafluorobutyl)-1H-indazol-3-yl]-7,7-dimethyl-5,7-dihydro-6H-pyrrolo[2,3-e][1,2,4]triazin-6-one], for which the IC50 in assay [1] was 95 nM; in assay [2], 794 nM. Also, in assay [3], the minimal effective concentration was 0.3 µM.

With `CC1(C)C(=O)Nc2nc(-n3nc(Cc4ccccc4F)c4cc(F)ccc43)nnc21` [Example 21, 3-[5-Fluoro-3-(2-fluorobenzyl)-1H-indazol-1-yl]-7,7-dimethyl-5,7-dihydro-6H-pyrrolo[2,3-e][1,2,4]triazin-6-one], the IC50 in assay [1] was 75 nM; in assay [2] it was 1130 nM. The minimal effective concentration in assay [3] came to 0.1 µM.

With `CC1(C)C(=O)Nc2nc(-n3nc(Cc4ccccc4F)c4ncc(F)cc43)nnc21` [Example 9, 3-[6-Fluoro-3-(2-fluorobenzyl)-1H-pyrazolo[4,3-b]pyridin-1-yl]-7,7-dimethyl-5,7-dihydro-6H-pyrrolo[2,3-e][1,2,4]triazin-6-one], the results for the IC50 in assay [1] and in assay [2] were 85 nM and 641 nM, respectively. Also, the minimal effective concentration in assay [3] was 0.1 µM.

On to `Cc1ncc2c(-c3nnc4c(n3)NC(=O)C4(C)C)nn(Cc3ccccc3F)c2n1` [Example 16, 3-[1-(2-Fluorobenzyl)-6-methyl-1H-pyrazolo[3,4-d]pyrimidin-3-yl]-7,7-dimethyl-5,7-dihydro-6H-pyrrolo[2,3-e][1,2,4]triazin-6-one], for which the results for the IC50 in assay [1] and in assay [2] were 64 nM and 340 nM, respectively. The minimal effective concentration in assay [3] is 0.3 µM.

Regarding `CC1(C)C(=O)Nc2nc(-n3nc(Cc4c(F)ccc(F)c4F)c4cc(Cl)ccc43)ncc21` [Example 2, 2-[5-Chloro-3-(2,3,6-trifluorobenzyl)-1H-indazol-1-yl]-5,5-dimethyl-5,7-dihydro-6H-pyrrolo[2,3-d]pyrimidin-6-one], the IC50 in assay [1] stood at 3700 nM; in assay [2] it was 5160 nM. Further, the minimal effective concentration in assay [3] is 0.065 µM.

With `CC1(C)C(=O)Nc2nc(-c3nn(Cc4ccccc4F)c4c3CCC4)ncc21` [Example 11, 2-[1-(2-Fluorobenzyl)-1,4,5,6-tetrahydrocyclopenta[c]pyrazol-3-yl]-5,5-dimethyl-5,7-dihydro-6H-pyrrolo[2,3-d]pyrimidin-6-one], the IC50 in assay [1] was found to be 4000 nM; in assay [2], 601 nM. The minimal effective concentration in assay [3] was 0.3 µM.

In turn, `CC1(C)C(=O)Nc2nc(-c3nn(Cc4ncccc4F)c4cc(Cl)ccc34)nnc21` [Example 25, 3-[6-Chloro-1-[(3-fluoropyridin-2-yl)methyl]-1H-indazol-3-yl]-7,7-dimethyl-5,7-dihydro-6H-pyrrolo[2,3-e][1,2,4]triazin-6-one] displayed an IC50 in assay [1] of 160 nM. Moreover, the minimal effective concentration in assay [3] stood at 0.3 µM.

In assay [1], `CC1(C)C(=O)Nc2nc(-n3nc(Cc4ccccc4F)c4ccccc43)nc(I)c21` [Example 3, 2-[3-(2-Fluorobenzyl)-1H-indazol-1-yl]-4-iodo-5,5-dimethyl-5,7-dihydro-6H-pyrrolo[2,3-d]pyrimidin-6-one] had an IC50 of 690 nM. Further, the minimal effective concentration in assay [3] turned out to be 0.3 µM.

Consider `CC1(C)C(=O)Nc2nc(-n3nc(Cc4ccccc4F)c4cc(F)ccc43)nc(I)c21` [Example 6, 2-[5-Fluoro-3-(2-fluorobenzyl)-1H-indazol-1-yl]-4-iodo-5,5-dimethyl-5,7-dihydro-6H-pyrrolo[2,3-d]pyrimidin-6-one], for which the IC50 in assay [1] is 690 nM. The minimal effective concentration in assay [3] came to 0.766 µM.

Molecule `CC1(C)C(=O)Nc2nc(-c3nn(Cc4ccccc4F)c4cc(Cl)ccc34)nnc21` [Example 24, 3-[6-Chloro-1-(2-fluorobenzyl)-1H-indazol-3-yl]-7,7-dimethyl-5,7-dihydro-6H-pyrrolo[2,3-e][1,2,4]triazin-6-one] yielded an IC50 in assay [1] of 25 nM. The minimal effective concentration in assay [3] stood at 0.1 µM.
